Measurements from US12448389B2, “BRM targeting compounds and associated methods of use” (Prelude Therapeutics Incorporated, priority 2020, dated 2025).

Columns and labels:
SMARCA2-HiBiT = molecular target: T1, SMARCA2-HiBiT (Homo sapiens, UniProt P51531); experiment: SMARCA2 HiBiT degradation assay in HeLa cells; type: cell-based; conditions: 18 hours incubation; for DC50: read-out: HeLa_HiBit-SM2 DC50; for Dmax: HeLa, read-out: HeLa-HiBit-SM2 Dmax (%)
T1 construct: SMARCA2-HiBiT knock-in Hela monoclonal cell (CS302366); host or cells: HeLa monoclonal knock-in line (CRISPR HiBiT knock-in at the endogenous locus, heterozygous)
How it was run: (§1)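 HeLa monoclonal lines with heterozygous HiBiT knock-in were seeded at 2500 cells/well in EMEM with 10% FBS and treated with compound for 18 h at 37 °C. Remaining tagged protein was measured by Nano-Glo HiBiT lytic luminescence after 30–60 min at RT, and values came from curve fitting.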

SMARCA4-HiBiT = molecular target: T2, SMARCA4-HiBiT (Homo sapiens, UniProt P51532); experiment: SMARCA4 HiBiT degradation assay in HeLa cells; type: cell-based; conditions: 18 hours incubation; for DC50: read-out: HeLa-HiBit-SM4 DC50; for Dmax: HeLa, read-out: HeLa-HiBit-SM4 Dmax (%)
T2 construct: SMARCA4-HiBiT knock-in Hela monoclonal cell (CS3023226); host or cells: HeLa monoclonal knock-in line (CRISPR HiBiT knock-in at the endogenous locus, heterozygous)
How it was run: as §1

T2 sequence (P51532 whole entry): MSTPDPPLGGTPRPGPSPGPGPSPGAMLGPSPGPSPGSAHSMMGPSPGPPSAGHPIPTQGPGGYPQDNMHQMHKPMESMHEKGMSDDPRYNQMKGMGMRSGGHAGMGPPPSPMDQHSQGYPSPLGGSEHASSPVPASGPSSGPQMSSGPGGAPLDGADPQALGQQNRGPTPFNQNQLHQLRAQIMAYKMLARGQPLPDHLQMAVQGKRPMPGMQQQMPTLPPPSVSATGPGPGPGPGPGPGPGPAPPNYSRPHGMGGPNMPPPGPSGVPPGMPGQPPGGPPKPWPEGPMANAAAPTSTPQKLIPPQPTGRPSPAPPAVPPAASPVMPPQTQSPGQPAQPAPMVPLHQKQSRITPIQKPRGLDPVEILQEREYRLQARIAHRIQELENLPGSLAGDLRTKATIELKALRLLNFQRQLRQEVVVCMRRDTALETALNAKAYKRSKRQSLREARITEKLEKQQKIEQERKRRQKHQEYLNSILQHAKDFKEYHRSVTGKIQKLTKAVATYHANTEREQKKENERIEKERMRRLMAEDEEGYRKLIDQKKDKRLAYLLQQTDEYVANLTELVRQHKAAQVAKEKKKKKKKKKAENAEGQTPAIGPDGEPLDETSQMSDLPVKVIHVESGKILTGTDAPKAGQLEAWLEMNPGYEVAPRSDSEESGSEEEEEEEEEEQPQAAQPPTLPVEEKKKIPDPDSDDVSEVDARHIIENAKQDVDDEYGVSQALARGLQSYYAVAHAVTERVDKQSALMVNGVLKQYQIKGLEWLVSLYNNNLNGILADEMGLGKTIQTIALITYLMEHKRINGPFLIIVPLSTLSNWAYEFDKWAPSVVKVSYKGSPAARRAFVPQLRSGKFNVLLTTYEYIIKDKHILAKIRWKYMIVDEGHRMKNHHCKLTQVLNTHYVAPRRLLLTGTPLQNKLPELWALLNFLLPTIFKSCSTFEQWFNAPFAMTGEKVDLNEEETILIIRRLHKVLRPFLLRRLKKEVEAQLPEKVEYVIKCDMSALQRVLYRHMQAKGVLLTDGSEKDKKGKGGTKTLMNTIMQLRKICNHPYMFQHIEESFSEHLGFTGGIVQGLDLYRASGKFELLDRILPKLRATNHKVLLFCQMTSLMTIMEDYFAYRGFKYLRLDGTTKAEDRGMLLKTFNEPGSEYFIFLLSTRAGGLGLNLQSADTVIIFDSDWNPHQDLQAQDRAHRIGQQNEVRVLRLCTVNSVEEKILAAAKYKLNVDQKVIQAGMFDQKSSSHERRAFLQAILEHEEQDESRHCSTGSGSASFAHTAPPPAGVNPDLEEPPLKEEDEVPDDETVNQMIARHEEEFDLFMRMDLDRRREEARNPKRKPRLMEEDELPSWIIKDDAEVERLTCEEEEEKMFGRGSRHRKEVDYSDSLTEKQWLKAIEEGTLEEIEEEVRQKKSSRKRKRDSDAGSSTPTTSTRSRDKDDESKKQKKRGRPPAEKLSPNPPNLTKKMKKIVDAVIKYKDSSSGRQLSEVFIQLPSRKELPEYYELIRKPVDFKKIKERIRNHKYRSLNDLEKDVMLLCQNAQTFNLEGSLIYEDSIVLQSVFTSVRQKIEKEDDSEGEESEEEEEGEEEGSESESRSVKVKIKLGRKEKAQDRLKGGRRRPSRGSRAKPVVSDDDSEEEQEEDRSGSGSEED
T1 sequence (P51531 whole entry): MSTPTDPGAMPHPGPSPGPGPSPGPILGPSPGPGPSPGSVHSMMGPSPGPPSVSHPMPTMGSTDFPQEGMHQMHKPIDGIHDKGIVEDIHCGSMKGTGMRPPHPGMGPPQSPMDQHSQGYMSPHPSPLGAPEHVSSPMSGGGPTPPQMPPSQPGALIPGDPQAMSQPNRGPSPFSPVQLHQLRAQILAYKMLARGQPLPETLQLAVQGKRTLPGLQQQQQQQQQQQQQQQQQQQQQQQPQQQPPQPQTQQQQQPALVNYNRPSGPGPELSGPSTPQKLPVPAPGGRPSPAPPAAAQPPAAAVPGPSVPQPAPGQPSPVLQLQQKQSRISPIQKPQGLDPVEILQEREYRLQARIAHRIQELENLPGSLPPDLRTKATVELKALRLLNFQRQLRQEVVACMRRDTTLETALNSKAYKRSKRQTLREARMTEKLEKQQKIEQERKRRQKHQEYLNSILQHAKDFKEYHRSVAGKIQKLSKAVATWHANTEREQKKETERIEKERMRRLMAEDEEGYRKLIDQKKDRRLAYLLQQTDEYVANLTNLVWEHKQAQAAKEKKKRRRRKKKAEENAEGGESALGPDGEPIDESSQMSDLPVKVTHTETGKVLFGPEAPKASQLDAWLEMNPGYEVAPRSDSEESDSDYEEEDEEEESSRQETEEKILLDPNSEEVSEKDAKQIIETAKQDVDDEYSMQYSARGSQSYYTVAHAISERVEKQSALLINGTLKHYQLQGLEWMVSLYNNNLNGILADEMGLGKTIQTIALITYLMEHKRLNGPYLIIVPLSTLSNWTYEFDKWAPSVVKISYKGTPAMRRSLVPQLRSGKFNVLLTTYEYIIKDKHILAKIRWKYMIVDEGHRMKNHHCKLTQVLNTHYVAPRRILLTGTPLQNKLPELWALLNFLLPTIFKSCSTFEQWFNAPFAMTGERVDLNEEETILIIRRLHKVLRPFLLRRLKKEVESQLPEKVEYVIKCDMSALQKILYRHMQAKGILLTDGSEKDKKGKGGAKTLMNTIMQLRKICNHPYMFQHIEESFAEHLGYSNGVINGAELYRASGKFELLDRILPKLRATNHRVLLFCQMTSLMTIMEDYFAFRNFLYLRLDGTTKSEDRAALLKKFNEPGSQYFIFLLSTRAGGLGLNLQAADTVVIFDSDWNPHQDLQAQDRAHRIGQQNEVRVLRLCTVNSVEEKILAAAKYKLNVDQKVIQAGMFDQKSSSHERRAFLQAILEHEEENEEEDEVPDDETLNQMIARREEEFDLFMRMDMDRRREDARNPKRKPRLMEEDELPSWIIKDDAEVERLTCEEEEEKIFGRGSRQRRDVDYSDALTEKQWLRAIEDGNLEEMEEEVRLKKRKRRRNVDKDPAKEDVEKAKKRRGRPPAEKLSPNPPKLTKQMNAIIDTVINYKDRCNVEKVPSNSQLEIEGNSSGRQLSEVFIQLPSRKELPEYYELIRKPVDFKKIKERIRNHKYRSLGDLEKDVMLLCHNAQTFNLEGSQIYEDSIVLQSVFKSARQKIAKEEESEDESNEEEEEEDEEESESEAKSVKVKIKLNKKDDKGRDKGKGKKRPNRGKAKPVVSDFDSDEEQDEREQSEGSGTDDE

| DC50 (SMARCA2-HiBiT) | Dmax (SMARCA2-HiBiT) | DC50 (SMARCA4-HiBiT) | Dmax (SMARCA4-HiBiT) | Compound |
| --- | --- | --- | --- | --- |
| 10 to 100 nM | 50 to 75% | 10 to 100 nM | 50 to 75% | O=C1CCC(N2Cc3cc(OCCN4CCC(N5CCN6c7cc(-c8ccccc8O)nnc7NC[C@H]6C5)C4)ccc3C2=O)C(=O)N1 (stereo partly drawn) [Example 256, 3-(5-(2-(3-((S)-2-(2-hydroxyphenyl)-5,6,6a,7,9,10-hexahydro-8H-pyrazino[1′,2′:4,5]pyrazino[2,3-c]pyridazin-8-yl)pyrrolidin-1-yl)ethoxy)-1-oxoisoindolin-2-yl)piperidine-2,6-dione] |
| 10 to 100 nM | 50 to 75% | 10 to 100 nM | 75 to 85% | O=C1CCC(N2C(=O)c3ccc(N4CCC(F)(F)C(CN5C[C@@H]6[C@H](C5)[C@H]6CN5CCN6c7cc(-c8ccccc8O)nnc7NC[C@H]6C5)C4)cc3C2=O)C(=O)N1 (stereo partly drawn) [Example 55, 5-(4,4-difluoro-3-(((1R,5S,6r)-6-(((S)-2-(2-hydroxyphenyl)-5,6,6a,7,9,10-hexahydro-8H-pyrazino[1′,2′:4,5]pyrazino[2,3-c]pyridazin-8-yl)methyl)-3-azabicyclo[3.1.0]hexan-3-yl)methyl)piperidin-1-yl)-2-(2,6-dioxopiperidin-3-yl)isoindoline-1,3-dione] |
| < 10 nM | 75 to 85% | < 10 nM | 75 to 85% | CC(C)(C)C(=O)OCN1C(=O)CCC(N2C(=O)c3cccc(N4CCC(N5CCC(N6CCN7c8cc(-c9ccccc9O)nnc8NC[C@H]7C6)CC5)CC4)c3C2=O)C1=O (stereo partly drawn) [Example 123, (3-(4-(4-((S)-2-(2-hydroxyphenyl)-5,6,6a,7,9,10-hexahydro-811-pyrazino [1′,2′:4,5]pyrazino[2,3-c]pyridazin-8-yl)-[1,4′-bipiperidin]-1′-yl)-1,3-dioxoisoindolin-2-yl)-2,6-dioxopiperidin-1-yl)methyl pivalate] |
| < 10 nM | > 85% | < 10 nM | > 85% | O=C1CCC(N2C(=O)c3ccc(N4CC(CN5CCC(CN6CCN7c8cc(-c9ccccc9O)nnc8NC[C@H]7C6)CC5)C4)cc3C2=O)C(=O)N1 (stereo partly drawn) [Example 247, 2-(2,6-dioxopiperidin-3-yl)-5-(3-((4-(((S)-2-(2-hydroxyphenyl)-5,6,6a,7,9,10-hexahydro-8H-pyrazino[1′,2′:4,5]pyrazino[2,3-c]pyridazin-8-yl)methyl)piperidin-1-yl)methyl)azetidin-1-yl)isoindoline-1,3-dione] |
| < 10 nM | > 85% | < 10 nM | 75 to 85% | O=C1CCC(N2C(=O)c3ccc(N4CCCC(N5CCC(CN6CCN7c8cc(-c9ccccc9O)nnc8NC[C@H]7C6)CC5)C4)cc3C2=O)C(=O)N1 (stereo partly drawn) [Example 218, 2-(2,6-dioxopiperidin-3-yl)-5-(4-(((S)-2-(2-hydroxyphenyl)-5,6,6a,7,9,10-hexahydro-8H-pyrazino[1′,2′:4,5]pyrazino[2,3-c]pyridazin-8-yl)methyl)-[1,3′-bipiperidin]-1′-yl) isoindoline-1,3-dione] |
| < 10 nM | > 85% | < 10 nM | > 85% | CC1(C)CN(CC2CCN(c3ccc4c(c3)C(=O)N(C3CCC(=O)NC3=O)C4)CC2)CCN1C(=O)N1CCN2c3cc(-c4ccccc4O)nnc3NC[C@H]2C1 (stereo partly drawn) [Example 105, 3-(6-(4-((4-((S)-2-(2-hydroxyphenyl)-6,6a,7,8,9,10-hexahydro-5H-pyrazino[1′,2′:4,5]pyrazino[2,3-c]pyridazine-8-carbonyl)-3,3-dimethylpiperazin-1-yl)methyl)piperidin-1-yl)-1-oxoisoindolin-2-yl)piperidine-2,6-dione] |
| < 10 nM | 75 to 85% | 10 to 100 nM | ≤ 50% | O=C1CCC(N2C(=O)c3ccc(N4CC[C@H](CN5C[C@@H]6[C@H](C5)[C@H]6CN5CCN6c7cc(-c8c(O)cccc8F)nnc7NC[C@H]6C5)[C@@H](F)C4)cc3C2=O)C(=O)N1 (stereo partly drawn) [Example 281, 2-(2,6-dioxopiperidin-3-yl)-5-((3R,4R)-3-fluoro-4-(((1R,5S,6R)-6-(((S)-2-(2-fluoro-6-hydroxyphenyl)-5,6,6a,7,9,10-hexahydro-8H-pyrazino[1′,2′:4,5]pyrazino[2,3-c]pyridazin-8-yl)methyl)-3-azabicyclo[3.1.0]hexan-3-yl)methyl)piperidin-1-yl) isoindoline-1,3-dione] |
| < 10 nM | > 85% | < 10 nM | > 85% | C[C@@H]1C[C@H](CN2CCC(CN3CCN4c5cc(-c6ccccc6O)nnc5NC[C@H]4C3)CC2)CCN1c1cc2c(cc1F)C(=O)N(C1CCC(=O)NC1=O)C2=O (stereo partly drawn) [Example 174, 2-(2,6-dioxopiperidin-3-yl)-5-fluoro-6-[(2R,4R)-4-[[4-[[(10S)-4-(2-hydroxyphenyl)-1,5,6,8,12-pentazatricyclo[8.4.0.02,7]tetradeca-2,4,6-trien-12-yl]methyl]piperidin-1-yl]methyl]-2-methylpiperidin-1-yl] isoindole-1,3-dione] |
| < 10 nM | > 85% | < 10 nM | 50 to 75% | O=C1CCC(N2C(=O)c3ccc(N4CCC(CN5CC6CC(CN7CCN8c9cc(-c%10ccccc%10O)nnc9NC[C@H]8C7)C6C5)CC4)cc3C2=O)C(=O)N1 (stereo partly drawn) [Example 177, 2-(2,6-dioxopiperidin-3-yl)-5-[4-[[6-[[(10S)-4-(2-hydroxyphenyl)-1,5,6,8,12-pentazatricyclo[8.4.0.02,7]tetradeca-2,4,6-trien-12-yl]methyl]-3-azabicyclo[3.2.0]heptan-3-yl]methyl]piperidin-1-yl]isoindole-1,3-dione] |
| < 10 nM | 50 to 75% | 100 to 1000 nM | ≤ 50% | CN(CCN1CCC(C(=O)N2CCN3c4cc(-c5ccccc5O)nnc4NC[C@H]3C2)CC1)c1ccc2c(c1)C(=O)N(C1CCC(=O)NC1=O)C2=O (stereo partly drawn) [Example 222, 2-(2,6-dioxopiperidin-3-yl)-5-((2-(4-((S)-2-(2-hydroxyphenyl)-6,6a,7,8,9,10-hexahydro-5H-pyrazino[1′,2′:4,5]pyrazino[2,3-c]pyridazine-8-carbonyl)piperidin-1-yl)ethyl)(methyl)amino) isoindoline-1,3-dione] |
| < 10 nM | 50 to 75% | 10 to 100 nM | 50 to 75% | CC(COc1ccc2c(c1)CN([C@@H]1CCC(=O)NC1=O)C2=O)N1CCC(N2CCN3c4cc(-c5ccccc5O)nnc4NC[C@H]3C2)CC1 (stereo partly drawn) [Example 215, (3R)-3-(5-(2-(4-((S)-2-(2-hydroxyphenyl)-5,6,6a,7,9,10-hexahydro-8H-pyrazino[1′,2′:4,5]pyrazino[2,3-c]pyridazin-8-yl)piperidin-1-yl)propoxy)-1-oxoisoindolin-2-yl)piperidine-2,6-dione] |
| < 10 nM | > 85% | < 10 nM | > 85% | O=C1CCC(N2C(=O)c3ccc(N4CCC(CN5CCC(N6CCN7c8cc(-c9ccccc9O)nnc8NC[C@H]7C6)CC5)CC4)cc3C2=O)C(=O)N1 (stereo partly drawn) [Example 30, 2-(2,6-dioxopiperidin-3-yl)-5-(4-((4-((S)-2-(2-hydroxyphenyl)-5,6,6a,7,9,10-hexahydro-8H-pyrazino[1′,2′:4,5]pyrazino[2,3-c]pyridazin-8-yl)piperidin-1-yl)methyl)piperidin-1-yl)isoindoline-1,3-dione] |
| < 10 nM | > 85% | < 10 nM | > 85% | O=C1CCC(N2C(=O)c3ccc(N4CCC(CN5CCC(CN6CCN7c8cc(-c9ccccc9O)nnc8NC[C@H]7C6)CC5)CC4)cc3C2=O)C(=O)N1COC(=O)C1(O)CC1 (stereo partly drawn) [Example 130, (3-(5-(4-((4-(((S)-2-(2-hydroxyphenyl)-5,6,6a,7,9,10-hexahydro-8H-pyrazino[1′,2′:4,5]pyrazino[2,3-c]pyridazin-8-yl)methyl)piperidin-1-yl)methyl)piperidin-1-yl)-1,3-dioxoisoindolin-2-yl)-2,6-dioxopiperidin-1-yl)methyl-1-hydroxycyclopropane-1-carboxylate] |
| < 10 nM | > 85% | 10 to 100 nM | 50 to 75% | O=C1CCC(N2C(=O)c3ccc(N4CC(CN5CCC(C(=O)N6CCN7c8cc(-c9ccccc9O)nnc8NC[C@H]7C6)CC5)C4)cc3C2=O)C(=O)N1 (stereo partly drawn) [Example 86, 2-(2,6-dioxopiperidin-3-yl)-5-(3-((4-((S)-2-(2-hydroxyphenyl)-6,6a,7,8,9,10-hexahydro-5H-pyrazino[1′,2′:4,5]pyrazino[2,3-c]pyridazine-8-carbonyl)piperidin-1-yl)methyl)azetidin-1-yl)isoindoline-1,3-dione] |
| < 10 nM | 50 to 75% | 10 to 100 nM | 75 to 85% | O=C1CCC(N2C(=O)c3ccc(NCCN4C[C@@H]5[C@H](C4)[C@H]5CN4CCN5c6cc(-c7ccccc7O)nnc6NC[C@H]5C4)cc3C2=O)C(=O)N1 (stereo partly drawn) [Example 153, 2-(2,6-dioxopiperidin-3-yl)-5-((2-((1R,5S,6r)-6-(((S)-2-(2-hydroxyphenyl)-5,6,6a,7,9,10-hexahydro-8H-pyrazino[1′,2′:4,5]pyrazino[2,3-c]pyridazin-8-yl)methyl)-3-azabicyclo[3.1.0]hexan-3-yl)ethyl)amino)isoindoline-1,3-dione] |
